Measurements taken from patent US20260062422A1 (Halda Therapeutics OpCo, Inc., priority 2022, published 2026).

What was measured:
androgen receptor = target: T1, androgen receptor (Homo sapiens, UniProt P10275); assay: Assay for binding affinity to androgen receptor ([3H]methyltrienolone radioligand, cell cytosol); conditions: 1 nM [3H]methyltrienolone, 24 hours at 4° C., Table 5
T1 sequence (P10275 1-920 T878A): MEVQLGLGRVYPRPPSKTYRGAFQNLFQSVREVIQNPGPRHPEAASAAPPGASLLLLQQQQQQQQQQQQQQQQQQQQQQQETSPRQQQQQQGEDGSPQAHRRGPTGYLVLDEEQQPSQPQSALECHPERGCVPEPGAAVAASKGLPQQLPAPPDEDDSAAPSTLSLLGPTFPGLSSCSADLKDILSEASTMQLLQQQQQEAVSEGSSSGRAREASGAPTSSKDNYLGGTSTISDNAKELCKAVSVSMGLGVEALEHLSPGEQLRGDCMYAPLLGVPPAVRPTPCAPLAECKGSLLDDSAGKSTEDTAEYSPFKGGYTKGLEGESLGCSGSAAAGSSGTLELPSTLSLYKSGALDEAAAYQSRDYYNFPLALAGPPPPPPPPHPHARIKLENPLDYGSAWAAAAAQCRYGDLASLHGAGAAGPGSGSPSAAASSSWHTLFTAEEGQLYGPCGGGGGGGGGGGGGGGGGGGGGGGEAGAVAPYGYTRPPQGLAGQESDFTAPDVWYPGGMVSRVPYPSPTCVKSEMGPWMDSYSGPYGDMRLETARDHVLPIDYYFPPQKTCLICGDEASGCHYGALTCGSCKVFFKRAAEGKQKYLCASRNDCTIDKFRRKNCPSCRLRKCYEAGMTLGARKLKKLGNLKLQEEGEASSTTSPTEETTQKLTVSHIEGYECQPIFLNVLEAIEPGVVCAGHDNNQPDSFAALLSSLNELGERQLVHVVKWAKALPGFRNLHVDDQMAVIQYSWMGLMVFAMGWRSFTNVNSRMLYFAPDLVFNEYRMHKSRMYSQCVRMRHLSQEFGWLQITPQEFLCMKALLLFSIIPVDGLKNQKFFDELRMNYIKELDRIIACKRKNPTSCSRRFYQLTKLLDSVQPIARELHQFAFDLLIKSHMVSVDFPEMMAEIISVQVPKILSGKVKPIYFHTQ
Outline: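 Competition binding in cell cytosol ([…]) with 1 nM [3H]methyltrienolone, 24 hours at 4° C, in pH 7.4 Hepes-Tris buffer with 5 μM triamcinolone acetonide; nonspecific binding defined by 1 μM testosterone. Filtration and scintillation counting; values reported as % inhibition of specific binding.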

VCaP cells = assay: Cellular growth inhibition assay for VCaP cells, CellTiter-Glo; type: cell-based, human; conditions: 72 hours treatment, CellTiter-Glo 2.0
Outline: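 GI50 values come from four-parameter curve fits of luminescence data normalized to a zero baseline. Compound, in medium with 0.5% DMSO, was added one day after plating and left for 72 h before CellTiter-Glo 2.0 addition.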

| SMILES | Kd (androgen receptor) | GI50 (VCaP cells; Homo sapiens, VCaP, 72 h) | GI50 (VCaP cells) |
| --- | --- | --- | --- |
| Cc1sc2c(c1C)C(c1ccc(Cl)cc1)=N[C@@H](CC(=O)NCCCN1CCN(CCCN(C)c3ncc(C(=O)N[C@H]4C(C)(C)[C@H](Oc5ccc(C#N)c(Cl)c5)C4(C)C)cn3)CC1)c1nnc(C)n1-2 [Compound I-5, N-((1r,3r)-3-(3-chloro-4-cyanophenoxy)-2,2,4,4-tetramethylcyclobutyl)-2-((3-(4-(3-(2-((S)-4-(4-chlorophenyl)-2,3,9-trimethyl-6H-thieno[3,2-f][1,2,4]triazolo[4,3-a][1,4]diazepin-6-yl)acetamido)propyl)piperazin-1-yl)propyl)(methyl)amino)pyrimidine-5-carboxamide] | < 0.05 µM | < 0.5 µM |  |
| CCNC(=O)C[C@@H]1N=C(c2ccc(OCCCC#Cc3ncc(C(=O)N[C@H]4C(C)(C)[C@H](Oc5ccc(C#N)c(Cl)c5)C4(C)C)cn3)cc2)c2c(sc(C)c2C)-n2c(C)nnc21 [Compound I-83] | < 0.05 µM | 0.5 to 1.5 µM |  |
| CCNC(=O)C[C@@H]1N=C(c2cccc(OCCOCCOCCOC3CCN(c4ncc(C(=O)N[C@H]5C(C)(C)[C@H](Oc6ccc(C#N)c(Cl)c6)C5(C)C)cn4)CC3)c2)c2c(sc(C)c2C)-n2c(C)nnc21 [Compound I-48, N-((1r,3r)-3-(3-chloro-4-cyanophenoxy)-2,2,4,4-tetramethylcyclobutyl)-2-(4-(2-(2-(2-(3-((S)-6-(2-(ethylamino)-2-oxoethyl)-2,3,9-trimethyl-6H-thieno[3,2-f][1,2,4]triazolo[4,3-a][1,4]diazepin-4-yl)phenoxy)ethoxy)ethoxy)ethoxy)piperidin-1-yl)pyrimidine-5-carboxamide] | < 0.05 µM | < 0.5 µM |  |
| Cc1sc2c(c1C)C(c1ccc(CC3CC4(CCN(c5ncc(C(=O)N[C@H]6C(C)(C)[C@H](Oc7ccc(C#N)c(Cl)c7)C6(C)C)cn5)CC4)C3)cc1)=N[C@@H](C)c1nnc(C)n1-2 [Compound I-303] | < 0.05 µM |  | 1.5 to 3 µM |
| CCNC(=O)C[C@@H]1N=C(c2ccc(N3CCC(N(C)C4CN(c5ncc(C(=O)N[C@H]6C(C)(C)[C@H](Oc7ccc(C#N)c(Cl)c7)C6(C)C)cn5)C4)CC3)cc2)c2c(sc(C)c2C)-n2c(C)nnc21 [Compound I-123] | < 0.05 µM | < 0.5 µM |  |
| Cc1sc2c(c1C)C(c1ccc(OCCOC3CCN(c4ncc(C(=O)N[C@H]5C(C)(C)[C@H](Oc6ccc(C#N)c(Cl)c6)C5(C)C)cn4)CC3)cc1)=N[C@@H](CC(=O)O)c1nnc(C)n1-2 [Compound I-38] | < 0.05 µM | > 3 µM |  |
| Cc1sc2c(c1C)C(c1ccc(N3CC(C4CCN(c5ncc(C(=O)N[C@H]6C(C)(C)[C@H](Oc7ccc(C#N)c(Cl)c7)C6(C)C)cn5)CC4)C3)cc1)=N[C@@H](C)c1nnc(C)n1-2 [Compound I-271] | < 0.05 µM | > 3 µM |  |
| Cc1sc2c(c1C)C(c1ccc(Cl)cc1)=N[C@H](CC(=O)NCCOCCOCCOCCOC1CCN(c3ncc(C(=O)N[C@H]4C(C)(C)[C@H](Oc5ccc(C#N)c(Cl)c5)C4(C)C)cn3)CC1)c1nnc(C)n1-2 [Compound I-13] | < 0.05 µM | > 3 µM |  |
| CCNC(=O)C[C@@H]1N=C(c2ccc(OCCOCCOCCOC3CCN(c4ncc(C(=O)N[C@H]5C(C)(C)[C@H](Oc6ccc(C#N)c(Cl)c6)C5(C)C)cn4)CC3)cc2)c2c(sc(C)c2C)-n2c(C)nnc21 [Compound I-45, N-((1r,3r)-3-(3-chloro-4-cyanophenoxy)-2,2,4,4-tetramethylcyclobutyl)-2-(4-(2-(2-(2-(4-((S)-6-(2-(ethylamino)-2-oxoethyl)-2,3,9-trimethyl-6H-thieno[3,2-f][1,2,4]triazolo[4,3-a][1,4]diazepin-4-yl)phenoxy)ethoxy)ethoxy)ethoxy)piperidin-1-yl)pyrimidine-5-carboxamide] | < 0.05 µM | < 0.5 µM |  |
| Cc1sc2c(c1C)C(c1ccc(Cl)cc1)=N[C@@H](CC(=O)NCCOCCOCCOC1CCN(c3ncc(C(=O)N[C@H]4C(C)(C)[C@H](Oc5ccc(C#N)c(Cl)c5)C4(C)C)cn3)CC1)c1nnc(C)n1-2 [Compound I-7] | < 0.05 µM | < 0.5 µM |  |
| CCNC(=O)C[C@@H]1N=C(c2ccc(N3CCC(CN4CC(Oc5ncc(C(=O)N[C@H]6C(C)(C)[C@H](Oc7ccc(C#N)c(Cl)c7)C6(C)C)cn5)C4)CC3)cc2)c2c(sc(C)c2C)-n2c(C)nnc21 [Compound I-124] | < 0.05 µM | 0.5 to 1.5 µM |  |
| CCNC(=O)C[C@@H]1N=C(c2ccc(N3CCC(OC4CCN(c5ncc(C(=O)N[C@H]6C(C)(C)[C@H](Oc7ccc(C#N)c(Cl)c7)C6(C)C)cn5)CC4)CC3)cc2)c2c(sc(C)c2C)-n2c(C)nnc21 [Compound I-114] | < 0.05 µM | < 0.5 µM |  |
| Cc1sc2c(c1C)C(c1ccc(Cl)cc1)=N[C@H](CC(=O)NCCOCCOCCOCCOCCOCCOCCOC1CCN(c3ncc(C(=O)N[C@H]4C(C)(C)[C@H](Oc5ccc(C#N)c(Cl)c5)C4(C)C)cn3)CC1)c1nnc(C)n1-2 [Compound I-9] | < 0.05 µM | < 0.5 µM |  |
| Cc1sc2c(c1C)C(c1ccc(OCCOCCOC3CCN(c4ncc(C(=O)N[C@H]5C(C)(C)[C@H](Oc6ccc(C#N)c(Cl)c6)C5(C)C)cn4)CC3)cc1)=N[C@@H](CC(=O)O)c1nnc(C)n1-2 [Compound I-39] | < 0.05 µM | > 3 µM |  |
| Cc1sc2c(c1C)C(c1ccc(OC3CC4(C3)CC3(CCN(c5ncc(C(=O)N[C@H]6C(C)(C)[C@H](Oc7ccc(C#N)c(Cl)c7)C6(C)C)cn5)CC3)C4)cc1)=N[C@@H](Cc1ncco1)c1nnc(C)n1-2 [Compound I-283] | < 0.05 µM | < 0.5 µM |  |
| Cc1sc2c(c1C)C(c1ccc(Cl)cc1)=N[C@@H](CC(=O)NCCCN1CCN(CC3CCN(c4ncc(C(=O)N[C@H]5C(C)(C)[C@H](Oc6ccc(C#N)c(Cl)c6)C5(C)C)cn4)CC3)CC1)c1nnc(C)n1-2 [Compound I-36, N-((1r,3r)-3-(3-chloro-4-cyanophenoxy)-2,2,4,4-tetramethylcyclobutyl)-2-(4-((4-(3-(2-((S)-4-(4-chlorophenyl)-2,3,9-trimethyl-6H-thieno[3,2-f][1,2,4]triazolo[4,3-a][1,4]diazepin-6-yl)acetamido)propyl)piperazin-1-yl)methyl)piperidin-1-yl)pyrimidine-5-carboxamide] | < 0.05 µM | 0.5 to 1.5 µM |  |
| Cc1sc2c(c1C)C(c1cccc(OCCOC3CCN(c4ncc(C(=O)N[C@H]5C(C)(C)[C@H](Oc6ccc(C#N)c(Cl)c6)C5(C)C)cn4)CC3)c1)=N[C@@H](CC(=O)O)c1nnc(C)n1-2 [Compound I-41] | < 0.05 µM | > 3 µM |  |
| Cc1sc2c(c1C)C(c1ccc(Cl)cc1)=N[C@@H](CC(=O)NCCOCCOCCOCC1CN(c3ncc(C(=O)N[C@H]4C(C)(C)[C@H](Oc5ccc(C#N)c(Cl)c5)C4(C)C)cn3)C1)c1nnc(C)n1-2 [Compound I-18] | < 0.05 µM | < 0.5 µM |  |
| CCNC(=O)C[C@@H]1N=C(c2ccc(OCCOCCOC3CCN(c4ncc(C(=O)N[C@H]5C(C)(C)[C@H](Oc6ccc(C#N)c(Cl)c6)C5(C)C)cn4)CC3)cc2)c2c(sc(C)c2C)-n2c(C)nnc21 [Compound I-44] | < 0.05 µM | < 0.5 µM |  |
| CCNC(=O)C[C@@H]1N=C(c2ccc(OCCCN(C)c3ncc(C(=O)N[C@H]4C(C)(C)[C@H](Oc5ccc(C#N)c(Cl)c5)C4(C)C)cn3)cc2)c2c(sc(C)c2C)-n2c(C)nnc21 [Compound I-81] | < 0.05 µM | < 0.5 µM |  |
| Cc1sc2c(c1C)C(c1ccc(Cl)cc1)=N[C@H](CC(=O)NCCOCCOCCOCCOCCN(C)c1ncc(C(=O)N[C@H]3C(C)(C)[C@H](Oc4ccc(C#N)c(Cl)c4)C3(C)C)cn1)c1nnc(C)n1-2 [Compound I-19] | < 0.05 µM | > 3 µM |  |
